# From patent US20030186950A1, “Use of n-heterocyclic substituted salicylates for inhibition of cellular uptake of cystine” (priority 2000, published 2003)
# Entries after “also recorded” stand apart in the source; their conditions may differ.
# How the values were obtained:
# [1] = system: Nb2-SFJCD1 rat lymphoma cells; assay: Culture growth inhibition assay in Nb2-SFJCD1 lymphoma cultures; format: cell-based; conditions: for Growth-inhibitory activity: 0.1-0.3 mM (FIG. 2); for IC50: 45 h, Fischer's medium with 10.0% horse gelding serum, read-out: IC50 (mM) Average ± S.D., growth inhibition
# Experimental: (§1) Nb2 lymphoma is of a pre-T cell origin. The parental line (Nb2 U17) is non-metastatic as subcutaneous implants whereas subline Nb2-SFJCD1 is highly metastatic. Nb2-SFJCD1 cultures (doubling time=12-13 hr) were maintained in Fischer's medium (Sigma-Aldrich), supplemented with 10.0% horse gelding serum (lactogen-deficient; one batch, ICN Biomedicals, Inc., Auroro, Ohio), penicillin (50 U/ml) and streptomycin (50 μg/ml). In this medium the cells grow as clumps which can be readily dispersed. Nb2 lymphoma cell lines are used by a number of laboratories; the Nb2-11 subline, is available from the European Collection of Animal Cell Cultures (ECACC) in Salisbury, U.K. The Nb2-U17 and Nb2-SJFCD1 cell lines are available from Dr. Peter W. Gout, B.C. Cancer Research Centre, Vancouver, B.C., Canada.
# Nb2-SFJCD1 cells from log phase cultures were centrifuged (3.5 min at 350×g) and gently resuspended in fresh Fisher's medium containing 10% horse gelding serum. Aliquots (1.80 ml) were distributed in 12-well tissue culture plates (Linbro, Flow Laboratories, Mississauga, ON, Canada) and preincubated for 3-5 hours at 37° C. in a water-saturated 5% CO2/air atmosphere. Solutions of the drugs (200 μl portions) were then added to the cultures for a 45 hour incubation (Cin=1.0×10^5 cells/ml). Cell populations were determined using an electronic counter (Coulter Electronics, Hialeah, Fla.).
# [2] = as reported in the literature for patients/controls undergoing treatment; cited from earlier work
# [3] = system: MCF-7 human breast carcinoma cell line; assay: Cell proliferation of MCF-7 breast carcinoma cells; format: cell-based
# Source text: (§2) The effect of sulfasalazine on cell proliferation was subsequently assessed.
# Nb2-U17 tumor transplant = assay: Tumor growth inhibition in Nb rats with subcutaneous Nb2-U17 lymphoma transplants; format: in vivo, rat; conditions: b.i.d.; for Average tumor size after 7 days: controls 12.6 gr
# Experimental: A colony of Nb rats is maintained in the British Columbia Cancer Research Centre Vancouver, B.C., Canada. Approximately equal portions of minced Nb2-U17 tumor tissue, developed subcutaneously in a rat following injection of cultured Nb2-U17 cells, were injected by trocar subcutaneously in the nape of the neck of groups of male Nb rats (one injection per rat), that had been lightly anesthetized with isoflurane (Abbott Laboratories Ltd., Montreal, Canada). […] 2% CMC or saline were used for controls. Drug preparation and administration were carried out under subdued light conditions. Food and water were provided ad libitum. Tumor size, body weight and general health of the rats were monitored twice a day. Tumor size was measured using calipers and expressed in grams using the formula: π/6×length×width×height in cm. […] On necropsy the animals were examined for evidence of metastatic spread with particular attention to tissues such as kidneys, liver and spleen, the target tissues of metastatic Nb2 lymphoma cells. Tissue sections were taken for histologic analysis. Non-tumor-bearing animals were used to establish maximally tolerated dosages.
# Groups of male rats (350-400 gr) were used, each carrying a single, well-developed, rapidly growing, non-metastatic, subcutaneous Nb2-U17 tumor transplant in the nape of the neck. Non-metastatic Nb2-U17 tumors were employed to avoid dissemination of cells from the tumor which would interfere with measurements of drug-induced changes in tumor mass. […] The animals were treated for a 7-day period, with drug administration taking place at approximately 12 hour intervals in an attempt to maintain elevated levels of the drug in the circulation.
# [4] = rat, in vivo, ip
# Source text: 2% CMC or saline were used for controls. […] Food and water were provided ad libitum. […] Tissue sections were taken for histologic analysis.
# Reduced tumor growth in the animals was therefore not the result of drug-induced dissemination of tumor cells from the transplant site, but reflected genuine, tumor growth inhibition. […] During therapy the animals remained active and their eyes stayed bright; there was no evidence of diarrhea, or changes in the appearance of their fur.
# [5] = system: DoHH2 cells (human B-cell non-Hodgkin's lymphoma); assay: Culture growth inhibition assay in DoHH2 cultures; format: cell-based; conditions: for Growth-inhibitory activity: medium with 5% FBS + 5% horse serum (FIG. 4)
# Experimental: as §1, with “Canada. DoHH2 cell suspension cultures (doubling time ca. 20 hours) were maintained in RPMI-1640 medium (Stem Cell Technology, Vancouver, B.C., Canada) containig fetal bovine serum (5%), horse serum (5%) and antibiotics.” for “Canada.”
# Assays using DoHH2 cells were similarly performed, using their maintenance medium; Cin=ca. 1.5×10^5 cells/ml (see: Kluin-Nelemans, H. C. et al. (1991) Leukemia 5:221.)
# [6] = system: MDA-MB-231 human breast carcinoma cell line; assay: Cell proliferation of MDA-MB-231 breast carcinoma cells; format: cell-based; conditions: 2-ME 60 μM
# Source text: as §2
structure (smiles),measurement,setting,value
Nc1ccc(O)c(C(=O)O)c1 [5-aminosalicylic acid],Growth-inhibitory activity,[1]; listed as 5-ASA,devoid of growth-inhibitory activity
CC(=O)Oc1ccccc1C(=O)O [Acetylsalicylic acid],inhibition at 3000 µM,"[1]; Rattus norvegicus, 3 mM (FIG. 1), read-out: Inhibition of culture growth at therapeutic concentration",~50%
same,IC50,[1]; Rattus norvegicus,3.09 ± 0.28 mM
same,Therapeutic drug levels in plasma,[2],1 to 3 mM
COc1ccc2c(c1)c(CC(=O)O)c(C)n2C(=O)c1ccc(Cl)cc1 [Indomethacin],inhibition at 20 µM,"[1]; Rattus norvegicus, 0.02 mM (FIG. 1), read-out: Inhibition of culture growth at therapeutic concentration",5 to 10%
same,IC50,[1]; Rattus norvegicus,0.15 ± 0.01 mM
same,Therapeutic drug levels in plasma,[2],0.005 to 0.02 mM
N[C@@H](CCC(=O)O)C(=O)[O-].[Na+] [Monosodium glutamate],Inhibition of proliferation,[3]; 10 mM,inhibited proliferation in MCF-7 cells to an extent similar to that observed for sulfasalazine
same,Effect of 2-ME addition on inhibition of proliferation,"[3]; 10 mM, 2-ME added",completely negated this effect
"O=C([O-])c1ccccc1O.[Na+] [Salicylate, sodium, sodium salicylate]",Inhibition of tumor growth,"Nb2-U17 tumor transplant; i.p. 150 mg/kg body wt, 7 days, 150 mg/kg",did not inhibit tumor growth; also recorded: had no effect
O=C(O)c1cc(/N=N/c2ccc(S(=O)(=O)Nc3ccccn3)cc2)ccc1O [Sulfasalazine],IC50,"[3]; Homo sapiens, MCF7, MCF-7, read-out: IC50, growth inhibition",500 ± 100 µM
same,Effect on culture growth,"[1]; 0.15 mM, 45 hour experiment",only partially arrested growth
same,Cell lysis,"[1]; 0.2 mM, period 24-45 hours",induced severe cell lysis
same,Growth-inhibitory activity,[1],highly potent
same,Change of growth-inhibitory effect by elevated cystine,[1]; cystine at ca. 3-fold elevated levels (FIG. 5),substantially reduced
same,Average tumor size after 7 days,"Nb2-U17 tumor transplant; i.p. 200 mg/kg body wt, start 0.93 gr",3.43 gr
same,Average tumor size after 7 days,"Nb2-U17 tumor transplant; i.p. 250 mg/kg body wt, start 0.60 gr",2.65 gr
same,Tumor growth suppression in three of the 13 cases,"Nb2-U17 tumor transplant; i.p. 200 or 250 mg/kg body wt, 7 days",90-100%
same,Lymphoma growth-inhibitory effect,"Nb2-U17 tumor transplant; oral 500 mg/kg body wt, 7 days",only minor lymphoma growth-inhibitory effect
same,Maximally tolerated dose,"[4]; Nb, 7 days","250 mg/kg body wt, b.i.d."
same,Side effects,[4],no major side effects
same,Cell lysis,"[5]; 1.5% FBS, 0.05 mM, at hr 45 (FIG. 4)",extensive cell lysis
same,Growth-inhibitory activity,[5],sensitivity to the drug which was similar to that of rat Nb2 lymphoma cells
same,Growth-inhibitory activity,[5]; listed as sulfasalazine,markedly inhibited the growth
same,Antagonism of inhibitory action by 2-ME,[6],completely antagonized
Nc1ccc(S(=O)(=O)Nc2ccccn2)cc1 [sulfapyridine],Growth-inhibitory activity,[1],devoid of growth-inhibitory activity
